Test results taken from patent US11679102B2, “Method for inhibiting virus infection and replication” (Chang Gung University, priority 2020, dated 2023).

Legend:
[1] = tested on: RD-sgACSL4^+/+ and RD-sgACSL4^−/− cells; assay: Lipid peroxidation (BODIPY 581/591-C11) in RSL3-treated RD-sgACSL4+/+ control and RD-sgACSL4−/− knockout cells; details: 1 μM RSL3, 36 hours, FIG. 9 upper panel
Method: Specifically, the RD-sgACSL4^−/− knockout and RD-sgACSL4^+/+ control cells were seeded in 12-well plates at a concentration of 1×10^5 cells per well.
(§1) Next, the treated cells and the infected cells were stained by incubating with 1 μM BODIPY™ 581/591-C11 (Invitrogen) at 37° C. for 30 minutes, and then collected using trypsin (Gibco). Thereafter, the stained cells were subjected to centrifugation at 300 g for 10 minutes to remove trypsin and the cell culture media, and then resuspended in 500 μL of fresh PBS. Subsequently, at least 10000 cells per sample were subjected to flow cytometry analysis using Attune NxT flow cytometer (Invitrogen), and FlowJo software was used for viewing and analyzing the thus obtained data. The BODIPY™ 581/591-C11 levels in the control groups (i.e., DMSO-treated cells and mock-infected cells) were set as 100%.

RD cells = assay: Lipid peroxidation (BODIPY 581/591-C11, flow cytometry) in RSL3-treated RD cells pretreated with ferroptosis inhibitors
Method: as §1
Wild-type RD cells were seeded in 12-well plates at a concentration of 1×10^5 cells per well. […] Subsequently, the pretreated cells were treated with 1 μM of RSL3 for 36 hours, or the same amount of DMSO serving as control group for comparison purpose.
Thereafter, these cells were subjected to staining with BODIPY™ 581/591-C11 (Invitrogen) and flow cytometry analysis according to the experimental procedures as described in the preceding sub-section, entitled “A. Determining lipid peroxidation level in virus-infected cells,” of this Example. The BODIPY™ 581/591-C11 levels in the control groups (i.e., DMSO-treated cells and mock-infected cells) were set as 100%.

HCoV-229E [2] = assay: Cell viability of HCoV-229E-infected LLC-MK2 cells (CellTiter96 Aqueous One Solution); format: cell-based, human coronavirus 229E; details: pretreated 1 hour at 0-120 μM, HCoV-229E m.o.i. 0.01, 7 d.p.i.; FIG. 13
Method: Wild-type RD cells and LLC-MK2 cells were seeded at a concentration of 2000 cells per well into respective wells of 96-well plates containing DMEM and 10% FBS. […] Mock-infected RD and LLC-MK2 cells served as control groups. CV-A6-infected and mock-infected RD cells, and HCoV-229E-infected and mock-infected LLC-MK2 cells were subjected to cell viability determination using CellTiter96 Aqueous One Solution Cell Proliferation Assay (Promega).

CV-A6-infected RD cells = format: cell-based, human; details: wild-type RD cells pretreated 1 hour with ferrostatin-1 100 μM or troglitazone 20 μM, then CV-A6 m.o.i. 0.01 for 36 hours; vs mock-infected; FIG. 11 lower panel
HCoV-OC43 = assay: Virus titer of HCoV-OC43 in infected Vero E6 cells (viral plaque assay); details: pretreated 1 hour with ferrostatin-1 40 μM or troglitazone 10 μM; m.o.i. 0.01; 1, 2, 3 d.p.i.; FIG. 15 lower panel
CV-A6 [3] = format: cell-based, Coxsackie virus A6; details: pretreated 1 hour at 0-120 μM, CV-A6 m.o.i. 0.01, 36 h.p.i.; FIG. 12
HCoV-229E [4] = assay: Virus titer of HCoV-229E in infected LLC-MK2 cells (viral plaque assay); details: pretreated 1 hour with ferrostatin-1 40 μM or troglitazone 10 μM; m.o.i. 0.01; 1, 2, 3 d.p.i.; FIG. 15 upper panel
CV-A6 [5] = format: cell-based, Coxsackie virus A6; details: pretreated 1 hour with ferrostatin-1 100 μM or troglitazone 20 μM; m.o.i. 0.01; 24, 36, 48 h.p.i.; FIG. 14

Row | Compound | Induction of lipid peroxidation in cells with normal ACSL4 expression ([1]; RD-sgACSL4^+/+ control cells) | Induction of lipid peroxidation in ACSL4 knockout cells ([1]; RD-sgACSL4^−/− knockout cells) | Lipid peroxidation level in RSL3-treated cells compared with DMSO-treated cells (RD cells; wild-type RD cells, 1 μM RSL3, 36 hours, FIG. 11) | Cell viability of HCoV-229E-infected LLC-MK2 cells (HCoV-229E [2]) | CV-A6-induced increase in lipid peroxidation level (relative BODIPY 581/591-C11 level) (CV-A6-infected RD cells) | Viral yields (virus titer) of HCoV-OC43 in infected Vero E6 cells vs DMSO control group (HCoV-OC43) | Cell viability of CV-A6-infected RD cells (CV-A6 [3]) | Viral yields (virus titer) of HCoV-229E in infected LLC-MK2 cells vs DMSO control group (HCoV-229E [4]) | RSL3-induced increase in lipid peroxidation level (relative BODIPY 581/591-C11 level) (RD cells; wild-type RD cells pretreated 1 hour with ferrostatin-1 100 μM or troglitazone 20 μM, then 1 μM RSL3 for 36 hours, vs DMSO control, FIG. 11 upper panel) | Viral yields (virus titer) of CV-A6 in infected RD cells vs DMSO control group (CV-A6 [5])
1 | COC(=O)c1ccc([C@@H]2c3[nH]c4ccccc4c3C[C@@H](C(=O)OC)N2C(=O)CCl)cc1 [RSL3] | effectively induce lipid peroxidation | unable to induce lipid peroxidation | significant increase |  |  |  |  |  |  | 
2 | CCOC(=O)c1ccc(NC2CCCCC2)c(N)c1 [ferrostatin-1] |  |  |  | increasing cell viability | significantly diminished | significantly lower | increasing cell viability | significantly lower | significantly diminished | significantly lower
